Data from ChEMBL document CHEMBL1909294, “Translating clinical findings into knowledge in drug safety evaluation--drug induced liver injury prediction system (DILIps)” (PLoS Comput Biol, 2011).

Key:
Hepatotoxicity [1] = test system: Hepatotoxicity;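 on HepSE Combined Scores: combined hepatic side effect score as listed in the training data of the Drug Induced Liver Injury Prediction System (DILIps)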;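 on HepSE bilirubinemia: bilirubinemia hepatic side effect score drawn from the DILIps training data, a prediction system for drug-induced liver injury; call rule not given here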;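 on HepSE cholecystitis: Cholecystitis-related hepatic side effect score drawn from the DILIps (drug-induced liver injury prediction) training data set; call rule not given here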;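 on HepSE cholelithiasis: hepatic side effect score for cholelithiasis, drawn from the DILIps training data for predicting drug-induced liver injury; call rule not given here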; on HepSE hepatic failure: call rule not given here;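 on HepSE hepatomegaly: hepatic side effect score for hepatomegaly, taken from the training set of the DILIps drug-induced liver injury prediction system; call rule not given here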; on HepSE liver disease: call rule not given here
Hepatotoxicity [2] = test system: Hepatotoxicity; remark: listed apart in the source;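 on HepSE Combined Scores: combined hepatic side effect score as listed in the training data of the Drug Induced Liver Injury Prediction System (DILIps)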;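 on HepSE bilirubinemia: bilirubinemia hepatic side effect score drawn from the DILIps training data, a prediction system for drug-induced liver injury; call rule not given here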;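 on HepSE cholecystitis: Cholecystitis-related hepatic side effect score drawn from the DILIps (drug-induced liver injury prediction) training data set; call rule not given here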;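 on HepSE cholelithiasis: hepatic side effect score for cholelithiasis, drawn from the DILIps training data for predicting drug-induced liver injury; call rule not given here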; on HepSE hepatic failure: call rule not given here;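 on HepSE hepatomegaly: hepatic side effect score for hepatomegaly, taken from the training set of the DILIps drug-induced liver injury prediction system; call rule not given here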; on HepSE liver disease: call rule not given here
Hepatotoxicity [3] = test system: Hepatotoxicity; remark: listed apart in the source;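 on HepSE Combined Scores: combined hepatic side effect score as listed in the training data of the Drug Induced Liver Injury Prediction System (DILIps)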;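 on HepSE bilirubinemia: bilirubinemia hepatic side effect score drawn from the DILIps training data, a prediction system for drug-induced liver injury; call rule not given here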;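 on HepSE cholecystitis: Cholecystitis-related hepatic side effect score drawn from the DILIps (drug-induced liver injury prediction) training data set; call rule not given here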;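 on HepSE cholelithiasis: hepatic side effect score for cholelithiasis, drawn from the DILIps training data for predicting drug-induced liver injury; call rule not given here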; on HepSE hepatic failure: call rule not given here;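 on HepSE hepatomegaly: hepatic side effect score for hepatomegaly, taken from the training set of the DILIps drug-induced liver injury prediction system; call rule not given here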; on HepSE liver disease: call rule not given here
Hepatotoxicity [4] = test system: Hepatotoxicity; remark: listed apart in the source;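 on HepSE Combined Scores: combined hepatic side effect score as listed in the training data of the Drug Induced Liver Injury Prediction System (DILIps)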;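 on HepSE bilirubinemia: bilirubinemia hepatic side effect score drawn from the DILIps training data, a prediction system for drug-induced liver injury; call rule not given here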;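 on HepSE cholecystitis: Cholecystitis-related hepatic side effect score drawn from the DILIps (drug-induced liver injury prediction) training data set; call rule not given here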;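 on HepSE cholelithiasis: hepatic side effect score for cholelithiasis, drawn from the DILIps training data for predicting drug-induced liver injury; call rule not given here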; on HepSE hepatic failure: call rule not given here;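 on HepSE hepatomegaly: hepatic side effect score for hepatomegaly, taken from the training set of the DILIps drug-induced liver injury prediction system; call rule not given here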; on HepSE liver disease: call rule not given here
Hepatotoxicity [5] = test system: Hepatotoxicity; remark: listed apart in the source; on HepSE hepatic failure: call rule not given here; on HepSE liver disease: call rule not given here
Hepatotoxicity [6] = test system: Hepatotoxicity; remark: listed apart in the source; on HepSE hepatic failure: call rule not given here; on HepSE liver disease: call rule not given here
Hepatotoxicity [7] = test system: Hepatotoxicity; remark: listed apart in the source
Hepatotoxicity [8] = test system: Hepatotoxicity; remark: listed apart in the source
Hepatotoxicity [9] = test system: Hepatotoxicity; remark: listed apart in the source
Hepatotoxicity [10] = test system: Hepatotoxicity; remark: listed apart in the source
Hepatotoxicity [11] = test system: Hepatotoxicity; remark: listed apart in the source
Hepatotoxicity [12] = test system: Hepatotoxicity; remark: listed apart in the source

Structure (SMILES)	HepSE_cholelithiasis (Hepatotoxicity [1]; Liver)	HepSE_bilirubinemia (Hepatotoxicity [2]; Liver)	HepSE_liver fatty (Hepatotoxicity [3]; Liver)	HepSE_hepatomegaly (Hepatotoxicity [4]; Liver)	HepSE_hepatitis (Hepatotoxicity [5]; Liver)	HepSE_hepatic failure (Hepatotoxicity [6]; Liver)	HepSE_cholecystitis (Hepatotoxicity [7]; Liver)	HepSE_hepatic necrosis (Hepatotoxicity [8]; Liver)	HepSE_liver disease (Hepatotoxicity [9]; Liver)	HepSE_Combined Scores (Hepatotoxicity [10]; Liver)	HepSE_jaundice (Hepatotoxicity [11]; Liver)	HepSE_cirrhosis (Hepatotoxicity [12]; Liver)	other results
O=C(O)c1cn(C2CC2)c2cc(N3CCNCC3)c(F)cc2c1=O [CIPROFLOXACIN]	0	1	0	1	1	1	0	1	0	7	1	0	–
CCN(CC)CC(=O)Nc1c(C)cccc1C [LIDOCAINE]	0	0	0	0	0	0	0	0	0	0	0	0	–
CC(C)(C(=O)O)c1ccc(C(O)CCCN2CCC(C(O)(c3ccccc3)c3ccccc3)CC2)cc1 (stereo not drawn) [FEXOFENADINE]	0	0	0	0	0	0	0	0	0	0	0	0	–
CCCCc1oc2ccccc2c1C(=O)c1cc(I)c(OCCN(CC)CC)c(I)c1 [AMIODARONE]	0	0	0	1	1	0	0	0	1	5	0	1	–
CN1CC[C@]23c4c5ccc(O)c4O[C@H]2[C@@H](O)C=C[C@H]3[C@H]1C5 [MORPHINE]	0	0	0	0	0	0	0	0	0	1	0	0	–
CN1[C@@H]2CC[C@H]1C[C@@H](OC(=O)C(CO)c1ccccc1)C2 (stereo partly drawn) [ATROPINE]	0	0	0	0	0	0	0	0	0	0	0	0	–
CC(C)NCC(O)COc1ccc(CC(N)=O)cc1 (stereo not drawn) [ATENOLOL]	0	0	0	0	0	0	0	0	0	0	0	0	–
COc1ccc(CCN(C)CCCC(C#N)(c2ccc(OC)c(OC)c2)C(C)C)cc1OC (stereo not drawn)	–	–	–	–	–	–	–	–	–	–	–	–	HepSE_cholelithiasis (Hepatotoxicity [1]): 0; HepSE_bilirubinemia (Hepatotoxicity [2]): 0; HepSE_liver fatty (Hepatotoxicity [3]): 0; HepSE_hepatomegaly (Hepatotoxicity [4]): 0; HepSE_hepatitis (Hepatotoxicity [5]): 1; HepSE_hepatic failure (Hepatotoxicity [6]): 0; HepSE_cholecystitis (Hepatotoxicity [7]): 0; HepSE_hepatic necrosis (Hepatotoxicity [8]): 0; HepSE_liver disease (Hepatotoxicity [9]): 0; HepSE_Combined Scores (Hepatotoxicity [10]): 2; HepSE_jaundice (Hepatotoxicity [11]): 1; HepSE_cirrhosis (Hepatotoxicity [12]): 0
CCOC(=O)N1CCC(=C2c3ccc(Cl)cc3CCc3cccnc32)CC1 [LORATADINE]	0	0	0	0	0	0	0	0	0	0	0	0	–
NCCCC(O)(P(=O)(O)O)P(=O)(O)O [ALENDRONIC ACID]	0	0	0	0	0	0	0	0	0	0	0	0	–
CC(C)c1c(C(=O)Nc2ccccc2)c(-c2ccccc2)c(-c2ccc(F)cc2)n1CC[C@@H](O)C[C@@H](O)CC(=O)O [ATORVASTATIN]	0	0	0	0	1	0	0	0	0	3	1	0	–
CN1[C@@H]2C[C@@H](OC(=O)[C@H](CO)c3ccccc3)C[C@H]1[C@@H]1O[C@@H]12 [SCOPOLAMINE]	0	0	0	0	0	0	0	0	0	0	0	0	–
CCCNCC(O)COc1ccccc1C(=O)CCc1ccccc1 (stereo not drawn) [PROPAFENONE]	0	0	0	1	1	0	0	0	0	4	1	0	–
CC1=C(C(=O)O)N2C(=O)[C@@H](NC(=O)[C@H](N)c3ccccc3)[C@H]2SC1 [CEPHALEXIN ANHYDROUS]	0	0	0	0	1	0	0	0	0	2	1	0	–
CC(C)c1nc(CN(C)C(=O)N[C@H](C(=O)N[C@@H](Cc2ccccc2)C[C@H](O)[C@H](Cc2ccccc2)NC(=O)OCc2cncs2)C(C)C)cs1 [RITONAVIR]	–	–	–	–	–	–	–	–	–	–	–	–	HepSE_cholelithiasis (Hepatotoxicity [1]): 0; HepSE_liver fatty (Hepatotoxicity [3]): 0; HepSE_hepatomegaly (Hepatotoxicity [4]): 1; HepSE_hepatitis (Hepatotoxicity [5]): 1; HepSE_cholecystitis (Hepatotoxicity [7]): 0; HepSE_hepatic necrosis (Hepatotoxicity [8]): 0; HepSE_liver disease (Hepatotoxicity [9]): 0; HepSE_Combined Scores (Hepatotoxicity [10]): 3; HepSE_jaundice (Hepatotoxicity [11]): 1; HepSE_cirrhosis (Hepatotoxicity [12]): 0
